Test results: patent US8835378B2, “Multi-domain amphipathic helical peptides and methods of their use” (The United States of America as represented by the …, priority 2004, dated 2014)
Entries after “also recorded” stand apart in the source; their conditions may differ. Where a SMILES comes first, the peptide text is derived from it. [ ]: non-standard residue; d: D form.

Tests used:
control cells = experiment: LDH release from control cells; assay type: cell-based, human; details: 40 μg/ml for 18 hours
Experimental: (§1) Cell fixation was performed by a 10 minute treatment with 3% paraformaldehyde in phosphate buffered saline (PBS), followed by three washes with blank media. Lactate dehydrogenase (LDH) release from cells into the media was measured enzymatically (Roche Diagnostics, Indianapolis, Ind.) and expressed, after subtraction of LDH released into blank media, as the percentage of total cell LDH. Total cell LDH was determined after cell solubilization with 1% Triton X-100.
(§2) Incubation of the cells with L-37pA and D-37pA at the maximum concentration and time used for the efflux studies (40 μg/ml for 18 hours) did, however, consistently result in the release of a small amount of LDH from both cell lines (control cells: L-37pA (6.1%±0.2), D-37pA (6.6%±0.1); ABCA1 cells: L-37pA (4.3%±0.04), D-37pA (5.7%±0.1)).

ABCA1 cells [1] = experiment: LDH release from ABCA1 cells; assay type: cell-based, human; details: 40 μg/ml for 18 hours
Experimental: as §1, §2

[2] = test system: ABCA1 cells and control cells; experiment: Cell morphology by light microscopy during efflux experiments; assay type: cell-based, human
[3] = test system: Tangier disease fibroblast cell line with a truncated non-functional ABCA1 transporter; experiment: Cholesterol efflux from Tangier disease fibroblasts; assay type: cell-based, human; details: 10 μg/ml, 18 hour
Experimental: (§3) FIG. 5 is a graph illustrating ABCA1-independent efflux of cholesterol from Tangier disease fibroblasts. Normal skin fibroblasts (open bars) and Tangier disease skin fibroblasts (solid bars) were examined for their ability to efflux cholesterol over an 18 hour period when treated with 10 μg/ml apoA-I (A), 10 μg/ml L-37pA (L), and 10 μg/ml D-37pA (D). Results are expressed as the mean of triplicates±1 SD.
(§4) In order to confirm that the residual lipid efflux from the control cells to L-37pA and D-37pA (see FIG. 1) was not due to a low level of endogenous ABCA1, a Tangier disease fibroblast cell line with a truncated non-functional ABCA1 transporter (Remaley et al., Proc. Natl. Acad. Sci. USA 96:12685-12690, 1999) was evaluated for lipid efflux (FIG. 5). […] Thromb. Vasc. Biol. 17:1813-1821, 1997.

Normal skin fibroblasts = experiment: Cholesterol efflux from normal skin fibroblasts; assay type: cell-based, human; details: 10 μg/ml, 18 hour
Experimental: as §3, §4

[4] = test system: HeLa cells transfected with only a hygromycin-resistant control plasmid (control cells); experiment: Cholesterol and phospholipid efflux from control cells; assay type: cell-based, human; details: for cholesterol and phospholipid efflux from control cells (in words): 18 hours
Experimental: (§5) Percentage efflux was calculated after subtracting the radioactive counts in the blank media (αMEM plus 1 mg/ml of BSA), and expressed as the percent of total radioactive counts removed from the cells during the efflux period.
as §1

ABCA1 cells [5] = experiment: Two-step competitive binding of radiolabled L-37pA to ABCA1 cells; design: species or system human; details: 8 μM, the maximum concentration tested; 4° C.
Experimental: FIGS. 7A-7B are a pair of graphs illustrating the competitive binding of L-37pA peptide to ABCA1 transfected cells and control cells. ABCA1 cells (FIG. 7A) and control cells (FIG. 7B) were incubated for 3 hours at 4° C. with the indicated concentration of the competitor proteins [L-37pA (triangle), D-37pA (open square), apoA-I (closed circle), L2D-37pA (star), and L3D-37pA (open circle)] and were then washed and incubated for 1 hour at 4° C. with 1 μg/ml of radiolabled L-37pA peptide. Results are expressed as the mean of triplicates±1 SD.
The L-37pA peptide was labeled with ^125I using iodine monochloride. Confluent cells grown on 12-well plates were incubated for 3 hours at 4° C. with the indicated concentration of the unlabeled competitor peptide in αMEM media plus 10 mg/ml of BSA (FIG. 7). […] Cells were washed three times, and cell bound counts were determined after solubilization with 0.1 N NaOH.
A two-step sequential competitive binding assay was performed in order to prevent any potentially interfering interaction of the radiolabled peptide with the competitor proteins (Mendez et al., J. Clin. Invest. 94:1698-1705, 1994). The cells were first incubated with the competitor proteins for 3 hours, washed, and then the cell binding of the radiolabled L-37 peptide was measured. […]

[6] = test system: HeLa cells stably transfected with human ABCA1 cDNA (ABCA1 cells); experiment: Cholesterol and phospholipid efflux from ABCA1 transfected cells; assay type: cell-based
Experimental: as §5, §1

Compound | LDH release from control cells (percentage of total cell LDH) (control cells) | LDH release from ABCA1 cells (percentage of total cell LDH) (ABCA1 cells [1]) | effect on cell morphology [2] | cholesterol efflux from Tangier disease fibroblasts [3] | cholesterol efflux from normal fibroblasts (Normal skin fibroblasts) | cholesterol efflux time course from control cells (in words) ([4]; 10 μg/ml, 30 hour efflux period) | cholesterol and phospholipid efflux from control cells (in words) [4] | cholesterol and phospholipid efflux from control cells (in words) ([4]; listed as apoA-1) | binding of labeled L-37pA to ABCA1 cells blocked by competitor (ABCA1 cells [5]) | time at which cholesterol efflux from ABCA1 cells was first detectable ([6]; 10 μg/ml) [h] | effect of fixation of ABCA1 cells on cholesterol efflux (in words) ([6]; 10 μg/ml, 18 hours, fixation with 3% paraformaldehyde) | cholesterol and phospholipid efflux from ABCA1 cells (in words) ([6]; 18 hours) | protein concentration at which lipid efflux began to show saturation ([6]; 18 hours) [µg/mL] | molar concentration at which lipid efflux began to show saturation ([6]; corresponds to 10 μg/ml) [µM]
CC(C)C[C@@H](NC(=O)[C@@H](Cc1c[nH]c2ccccc12)NC(=O)[C@H](N)CC(=O)O)C(=O)N[C@H](CCCCN)C(=O)N[C@H](C)C(=O)N[C@H](Cc1ccccc1)C(=O)N[C@H](Cc1ccc(O)cc1)C(=O)N[C@H](CC(=O)O)C(=O)N[C@H](CCCCN)C(=O)N[C@@H](C(=O)N[C@H](C)C(=O)N[C@H](CCC(=O)O)C(=O)N[C@H](CCCCN)C(=O)N[C@H](CC(C)C)C(=O)N[C@H](CCCCN)C(=O)N[C@H](CCC(=O)O)C(=O)N[C@H](C)C(=O)N[C@H](Cc1ccccc1)C(=O)N1CCC[C@@H]1C(=O)N[C@H](CC(=O)O)C(=O)N[C@H](Cc1c[nH]c2ccccc12)C(=O)N[C@H](CC(C)C)C(=O)N[C@H](CCCCN)C(=O)N[C@H](C)C(=O)N[C@H](Cc1ccccc1)C(=O)N[C@H](Cc1ccc(O)cc1)C(=O)N[C@H](CC(=O)O)C(=O)N[C@H](CCCCN)C(=O)N[C@@H](C(=O)N[C@H](C)C(=O)N[C@H](CCC(=O)O)C(=O)N[C@H](CCCCN)C(=O)N[C@H](CC(C)C)C(=O)N[C@H](CCCCN)C(=O)N[C@H](CCC(=O)O)C(=O)N[C@H](C)C(=O)N[C@H](Cc1ccccc1)C(=O)O)C(C)C)C(C)C [D-37pA] (H-[dD][dW][dL][dK][dA][dF][dY][dD][dK][dV][dA][dE][dK][dL][dK][dE][dA][dF][dP][dD][dW][dL][dK][dA][dF][dY][dD][dK][dV][dA][dE][dK][dL][dK][dE][dA][dF]-OH; N-terminus and C-terminus assumed) | 6.6%±0.1 | 5.7%±0.1 | – | – | – | – | – | – | – | – | – | – | – | –
CC(C)C[C@H](NC(=O)[C@H](Cc1c[nH]c2ccccc12)NC(=O)[C@H](CC(=O)O)NC(=O)[C@@H]1CCCN1C(=O)[C@H](Cc1ccccc1)NC(=O)[C@H](C)NC(=O)[C@H](CCC(=O)O)NC(=O)[C@H](CCCCN)NC(=O)[C@H](CC(C)C)NC(=O)[C@H](CCCCN)NC(=O)[C@H](CCC(=O)O)NC(=O)[C@H](C)NC(=O)[C@@H](NC(=O)[C@H](CCCCN)NC(=O)[C@H](CC(=O)O)NC(=O)[C@H](Cc1ccc(O)cc1)NC(=O)[C@H](Cc1ccccc1)NC(=O)[C@H](C)NC(=O)[C@H](CCCCN)NC(=O)[C@H](CC(C)C)NC(=O)[C@H](Cc1c[nH]c2ccccc12)NC(=O)[C@@H](N)CC(=O)O)C(C)C)C(=O)N[C@@H](CCCCN)C(=O)N[C@@H](C)C(=O)N[C@@H](Cc1ccccc1)C(=O)N[C@@H](Cc1ccc(O)cc1)C(=O)N[C@@H](CC(=O)O)C(=O)N[C@@H](CCCCN)C(=O)N[C@H](C(=O)N[C@@H](C)C(=O)N[C@@H](CCC(=O)O)C(=O)N[C@@H](CCCCN)C(=O)N[C@@H](CC(C)C)C(=O)N[C@@H](CCCCN)C(=O)N[C@@H](CCC(=O)O)C(=O)N[C@@H](C)C(=O)N[C@@H](Cc1ccccc1)C(=O)O)C(C)C [L-37pA] (H-DWLKAFYDKVAEKLKEAFPDWLKAFYDKVAEKLKEAF-OH; N-terminus and C-terminus assumed) | 6.1%±0.2 | 4.3%±0.04 | – | – | – | – | – | – | – | – | – | – | – | –
apolipoprotein A-I [apoA-I] | – | – | no morphologic effect was observed | did not efflux significant amounts of cholesterol | effluxed cholesterol | no significant increase above background | do not efflux significant amounts of cholesterol and phospholipid; also recorded: unable | did not cause lipid efflux from control cells | approximately 30% | 2 | completely blocked | do so after transfection with ABCA1 | ~10 | 0.36
